Data from patent US8329681B2, “Methods and compositions for the efficient delivery of therapeutic agents to cells and animals” (University of Massachusetts, priority 2005, dated 2012).

How the values were obtained:
[1] = Tissue distribution of Cy3-labeled siRNA by fluorescence microscopy; assay type: in vivo, BALB/c mice; details: 24 h after injection
Description: Freshly excised tissues were frozen in liquid nitrogen and mounted for crytostat sectioning. Sections of 5 μm were fixed with in 100% acetone at 4° C. for 10 min, air-dried and mounted in Vectashild with DAPI (Vector Laboratories, Inc. Burlingame, Calif.). Slides were viewed and recorded under Leica confocal microscope.
Male BALB/c mice, 6-8 weeks of age and weighting 20-22 g, were purchased form the Jackson Laboratory (Bar Harbor, Me.). Synthetic siRNA were delivered in vivo using following method. For each mice 25 μg of siRNA in 100 μl of HEPES Buffered Saline (20 mM HEPES, 150 mM NaCl, pH 7.4) was transferred into a sterile tube. In a separate sterile tube 125 μg of liposome was mixed with 200 μl HEPES Buffered Saline. The siRNA solution was transferred to the tube containing liposome solution and then incubated at room temperature for 20 minutes. 200 μl of the complexes was injected via the tail vein, using a 1-ml syringe and 27-gauge needle. The injection was repeated 4 and 8 h later. Control mice were injected with an equal volume of liposome. At 24 h after the last injection, the mice were sacrificed and tissues were harvested for further analysis. […]
The tissue distribution patterns of siRNA delivered in BALB/c mice using DOTAP-Chol were assessed by fluorescence microscopy.

FL83B cells = test: Transfection of pSV-β-gal plasmid, β-galactosidase reporter activity; assay type: cell-based, rat
Description: (§1) Cationic lipids and the co-lipids in chloroform were dried under a stream of N2 gas and vacuum-desiccated for a minimum of 6 h to remove residual organic solvent. The dried lipid film was hydrated in sterile deionized water at cationic lipid concentration of 1 mM for a minimum of 12 h. Liposomes were vortexed to remove any adhering lipid film and probe sonicated until a clear translucent solution is formed. The pDNA solution was added to the liposomes, mixed properly by pipeting and shaken on a rotary shaker (15-30 mins.) before use.
(§2) Cells were seeded at a density of 20,000 (for HeLa cells), 16,000 (for A-549 cells), 8,000 (for FL83B cells) per well in a 96-well plate 18-24 h before transfection. An amount of 0.30 μg of pDNA was complexed with varying amounts of lipids (to give +/− ratios of 0.3:1, 1:1, 3:1 and 9:1) in plain OPTIMEM (total volume made up to 100 μl) and then shaken on a rotary shaker at room temperature for 20-30 minutes. The complexes were then added to the cells. After 5 h of incubation, 200 μl of complete medium containing 10% FBS in DMEM for HeLa and 10% FBS in F-12K for FL83B and A549 was added to the cells. The medium was changed after 24 h and the reporter gene activity was estimated 48 h after transfection. Cells were washed with PBS (100 μl) and lysed in […] lysis buffer (5× reporter lysis buffer diluted to 1×, working concentration). The β-galactosidase activity per well was estimated by adding 50 μl of 2× substrate solution (1.33 mg/ml of ONPG, 0.2 M sodium phosphate, pH 7.15 and 2 mM magnesium chloride) to the lysate in a 96-well plate. Absorbance of the product ortho-nitrophenol was measured at 420 nm. The absorbance values reported are the average values from two replicate experiments performed in the same plate on the same day. Each transfection experiment was performed three times on three different days to control for variations in transfection efficiency.
(§3) Briefly, the efficacy of various lipid formulations were tested in three cell lines A-549, FL83B and HeLa cells and the transfection efficiencies of the cationic liposomal formulations were compared with a commercially available transfection reagent (e.g., Lipofectamine 2000).

CDK9 expression = test: In vivo delivery of CDK9 siRNA with liposome by tail vein injection, CDK9 expression in spleen; parameters: species or system BALB/c mice; details: Cy3-labeled CDk9 siRNA (25 μg) and liposome (125 μg), repeated 4 and 8 h later, within the initial 24 h after treatment
Description: Total RNA was extracted from tissues or cultured cells using Trizol (Invitrogen, Carlsbad, Calif.), and real-time RT-PCR for CDK9 and GAPDH mRNA quantification was carried out using 200 ng of total RNA and the QuantiTect SYBR Green RT-PCR Kit (Qiagen, Valencia, Calif.) according to the manufacturer's instructions. The ratio of CDK9 and GAPDH mRNA was calculated and expressed as a group average relative to the control group. The specific probe for detection of CDK9 mRNA levels was designed to the following regions of the CDK9 mRNA ORF, the forward primer 5′ TCGGACCAA AGCCTCACCGTATAA 3′, the reverse primer 5′ […] TTG 3′
Male BALB/c mice, 6-8 weeks of age and weighting 20-22 g, were purchased form the Jackson Laboratory (Bar Harbor, Me.). Synthetic siRNA were delivered in vivo using following method. For each mice 25 μg of siRNA in 100 μl of HEPES Buffered Saline (20 mM HEPES, 150 mM NaCl, pH 7.4) was transferred into a sterile tube. In a separate sterile tube 125 μg of liposome was mixed with 200 μl HEPES Buffered Saline. The siRNA solution was transferred to the tube containing liposome solution and then incubated at room temperature for 20 minutes. 200 μl of the complexes was injected via the tail vein, using a 1-ml syringe and 27-gauge needle. The injection was repeated 4 and 8 h later. Control mice were injected with an equal volume of liposome. At 24 h after the last injection, the mice were sacrificed and tissues were harvested for further analysis. CDK9 expression level was normalized with GAPDH and then compared to those obtained from control animals and shown as percent expression. The data represent the mean value +/− SD of three to five mice in each group.
Briefly, the ability of the new synthesized liposome to deliver siRNA in mice was investigated. BALB/c mice were administrated with complexes of Cy3-labeled CDk9 siRNA (25 μg) and liposome (125 μg) via normal pressure tail vein injection. The injection was repeated 4 and 8 h later. Control mice were administrated with an equal amount of liposome. […]

HeLa cells = test: Transfection of pSV-β-gal plasmid, β-galactosidase reporter activity; assay type: cell-based, human
Description: as §1, §2, §3

A549 cells = test: as above; assay type: cell-based, human
Description: as §1, §2, §3

[2] = tested on: A-549, FL83B and HeLa cells; test: Transfection of pSV-β-gal plasmid, overall statement without cell line; assay type: cell-based; details: alone without any co-lipids
Description: as §2, with “efficiency. […]” for “efficiency.”

[3] = alone, lipid:DNA charge ratios 1:1 and 0.3:1
[4] = in combination with DOPE, charge ratio 3:1

## CCCCCCCCC=CCCCCCCCC(=O)OC(COC(=O)CCC(=O)OC1CCC2(C)C(=CCC3C2CCC2(C)C(C(C)CCCC(C)C)CCC32)C1)C[N+](C)(C)C.[I-] (stereo not drawn) [Lipid 8, N,N,N-Trimethyl-N-[2-(9(Z)-octadecanoyloxy),3-succinyloxy(4-cholesteryloxy)-propyl]ammonium iodide]
[1]
  tissues with the highest fluorescent intensity of delivered Cy3-labeled siRNA: the spleen, the lung and the liver
FL83B cells; [3]
  transfection efficiency compared with Lipofectamine 2000: one fold less
FL83B cells; in combination with DOPC, charge ratio 9.0:1.0 to 0.3:1.0
  transfection efficiency compared with Lipofectamine 2000: about two fold less
FL83B cells; [4]
  transfection efficiency, fold less than Lipofectamine 2000: more than 1.5 fold
CDK9 expression
  CDK9 expression level in the spleen decreased by: 28%
HeLa cells; [3]
  transfection efficiency, fold less than Lipofectamine 2000: ~1.5 fold
HeLa cells; in combination with DOPC, charge ratio of 1.1
  transfection efficiency compared with Lipofectamine 2000: comparable
HeLa cells; [4]
  transfection efficiency, fold less than Lipofectamine 2000: more than 1.5 fold
A549 cells; [3]
  transfection efficiency compared with Lipofectamine 2000: one fold less
A549 cells; in combination with DOPC
  transfection efficiency, fold less than Lipofectamine 2000: about 1 fold
A549 cells; [4]
  transfection efficiency compared with Lipofectamine 2000: comparable
[2]
  transfection efficiency of lipid alone compared with lipid in combination with DOPE and DOPC: about as efficient
